Test results: patent US11541044B2, “K-Ras modulators” (The Regents of the University of California, priority 2015, dated 2023)
Entries after “also recorded” stand apart in the source; their conditions may differ.

Tests used:
[1] = target: T1, KRAS4b (1-188), unprocessed (Homo sapiens, UniProt P01116); assay: MALDI-TOF analysis of modification of unprocessed KRAS4b; type: binding
T1 construct: G (one extra N-terminal glycine before Met1, remnant of the construct) (N); made in house; host or cells: E. coli
Protocol: FIG. 27. Comparing Gel Mobility and Antibody Reactivity of Different Purified K-Ras 4B Forms. E. Coli: unprocessed K-ras 4B purified from E. coli. Fme: processed K-ras 4B purified from SF9 cells. FB9: unprocessed K-ras 4B labeled with FB9 to about 70%.
Chemical modification of unprocessed KRAS-4b at His-95 (protein G-Hs.KRAS4b(1-188), mass (average) 21481.59 Da.
KRAS4b (FIG. 43) was modified by FB9 in vitro (using 8.8-fold molar excess of FB9 for 1 h at 37° C., followed by 16 h at room temperature, 22° C.). […] Molecular species with 1 and 2 and 3 modification groups were present (FIG. 44).
To identify the modified amino acid residues, the protein preparation was digested by protease Glu-C. […] Peptide with m/z 1735 corresponds to sequence GKKKKKKSKTKCVIM (SEQ ID NO: 3) (174-189) and m/z 2085 corresponds to the same peptide modified by FB9 at Cys-186 (confirmed by fragmentation).
To identify other potential residues modified by FB9, peptides obtained after digestion by Glu-C were further digested by trypsin (FIG. 46A).

[2] = test system: Ras-less cells exogenously expressing K-Ras G12D; assay: EGF stimulation plus FB9 in G12D expressing RAS-less MEFS; type: cell-based; conditions: EGF for 30 and 60 minutes, FB9 at various concentrations
Protocol: FIG. 22. Cell Based Assays with G12D expressing RAS-less MEFS; Ras-less cells exogenously expressing K-Ras G12D were stimulated with EGF for 30 and 60 minutes. Concomitantly FB9 was added at various concentrations. Similar experiments were done with pancreatic cell lines expressing various oncogenic mutations. […] Growth curves were also performed.

Kras = assay: Interaction of FB9 with Kras in the absence or presence of BME; type: binding, human; conditions: RT
[3] = Reactivity of FB9 with BME; type: physicochemical; conditions: 1 mM FB9, 5 mM BME, 37° C., 55 minutes
Protocol: FIGS. 20A-20C. Reactivity of Tetrafluorophenoxy-6B9 (FB9) with BME; experiment was done with 1 mM FB9 and minus or plus 5 mM BME at 37° C.

fmeKRAS4b = target: T2, fmeKRAS4b (Homo sapiens, UniProt P01116); assay: MALDI-TOF analysis of modification of processed (farnesylated, carboxymethylated) KRAS4b; type: binding
T2 construct: GG (two N-terminal glycines in place of Met1, remnant of the construct) (N); made in house; host or cells: SF9 insect cells
Protocol: FIG. 36. Modification of fmeKRAS4b by FB9. Recombinant fmeKRAS4b was loaded with GDP or GppNHp (a nonhydrolyzable analogue of GTP), then reacted with FB9 at 37° C. for 100 min.
Modification of processed (farnesylated and carboxylmethylated KRAS4b). Protein prep GG-HsKRAS-4b, RP1151105092454 FmeKRAS4b (FIG. 47A) was modified by FB9 with 7.6-fold molar excess of FB9 for 1 h at 37° C., followed by 16 h at room temperature (22° C.). […] To identify the modified amino acid residues protein preparation was digested by trypsin.
During fragmentation, these modified peptides yielded intensive fragment corresponding to unmodified peptide and fragments of peptide (mostly without modification).
These peptides were modified on His residues. To identify which His was modified (i.e. 95 or 96 in the sequence of used recombinant KRAS) fragmentation spectra were analyzed in BioTools when FB9 modification (C17H20Cl1N2O4, 350/351) was set on one of these His residues in Sequence Editor.
In fragmentation spectrum of 1554 a fragment 825.409 was present but not in a spectrum of 1203. When FB9 modification was on His-7 this fragment was assigned by BioTools as modified y-3. Manual examination of the spectrum confirmed this conclusion.

K-Ras G12D = target: T3, K-Ras G12D (Homo sapiens, UniProt P01116, G12D); assay: Covalent binding of electrophile compounds to K-Ras G12D (mass spectrometry)
T3 construct: Rec full length G12D became loaded with either GDP or GTPyS and Mg2+; His tag
Protocol: FIGS. 13A-13E. […] FIG. 13B and FIG. 13D were performed after 5 hours. FIG. 13C and FIG. 13E were performed at 23 hours.
FIGS. 15A-15D. Experiments with Stereoisomers of Difluorophenoxy-6B9; Kras G12D/GTPyS/Mg2+, DMSO control, 2 h incubation at RT; The binding of FB9 to Kras G12D was compared with the stereoisomers of Difluorophenoxy-6B9 (53, 54); FB9 bound 100% after 2 h incubation; Difluorophenoxy-6B9 (compound ‘53’) bound to about 62% compared to FB9 under the same condition; The stereoisomer (‘54’) of compound ‘53’ bound to roughly 35% compared to FB9 which is roughly 50% of compound ‘53’; Partial stereospecific interaction.

COc1ccc(Cl)cc1C(=O)N1CCC[C@H](C(=O)NCC(=O)COc2c(F)c(F)cc(F)c2F)C1 [FB9, (3S)-1-[(5-Chloro-2-methoxyphenyl)carbonyl]-N-[2-oxo-3-(2,3,5,6-tetrafluorophenoxy)propyl]piperidine-3-carboxamide]
extent of chemical modification of unprocessed KRAS4b ([1]; 8.8-fold molar excess of FB9, 1 h at 37° C., then 16 h at 22° C.): close to complete | unprocessed K-ras 4B labeled with FB9 ([1]; protein preparation used for gel mobility comparison): about 70% | K-Ras protein levels [2]: Changes at K-Ras protein levels are visible | reactivity with Kras when BME is titrated in (Kras): reactivity of the compound being reduced | product formed with BME (reduction of the free compound peak) [3]: about 25% | extent of chemical modification of FmeKRAS4b (fmeKRAS4b; 7.6-fold molar excess of FB9, 1 h at 37° C., then 16 h at 22° C.): major form represented species with 1 added modification group | covalent modification, GDP versus GppNHp loaded protein (fmeKRAS4b; 37° C. for 100 min, 350 Da mass addition): more pronounced when GTP analogue was present | residue modified in FME-Kras4B (fmeKRAS4b; recombinant farnesylated-carboxymethylated protein): covalently modifies histidine 95 residue (H95); also recorded: His7 (i.e. H95 in the native protein) is modified | bound better than enantiomer FB9D (K-Ras G12D; K-Ras (G12D), GTPyS/Mg, 50 μM for 2.5 h at RT): 25-30% | labelling at a second site (K-Ras G12D; K-Ras/GDP/Mg2+, 5 h): significantly labelled at a second site after 5 h | bound to Kras G12D (K-Ras G12D; Kras G12D/GTPyS/Mg2+, 2 h incubation at RT): 100% | binding to GTPyS versus GDP bound K-Ras G12D (K-Ras G12D; ~10 μM protein, 100 μM compound, RT, 5 and 23 hours): bound better when K-Ras was in complex with GTPyS/Mg2+
